Assay [1] relates to L1210 leukemia. Kind of assay: L1210 leukemia in mice, increase in life span (Table 2). The class given is in vivo. As to conditions: Mus musculus, L1210, 192 h; 400 mg/kg daily for 8 days; read-out: ILS, average percent (± standard error) increase in life span. From the text: As stated above, the compounds represented by formula I above have the ability to inhibit ribonucleotide reductase, an enzyme involved in the reductive conversion of ribonucleotides to deoxyribonucleotides. This enzymatic reaction is a rate controlling step in the biosynthetic pathway leading to DNA and cell replication. In general, the ribonucleotide reductase level is closely correlated with cellular replication.
(§1) Table 2 gives ribonucleotide reductase data for certain compounds of formula I. In the table, column 1 gives the substitution pattern in the benzene ring, column 2, the R^1 group, column 3, the ID50 (inhibitory dose in micromolar concentration which inhibits ribonucleotide reductase by 50%), column 4, the average percent (± standard error) increase in the life span (ILS) of 8 treated mice inoculated with L1210 leukemia compared with 8 control mice also inoculated with L1210. The daily dose level of the drug which was administered for 8 days is indicated in column 5. Table 3 gives the relative potency of the compounds represented by formula I above as inhibitors of ribonucleotide reductase compared to hydroxyurea whose potency was given an arbitrary value of 1.0. In table 3, column 1 gives the name of the compound and column 2 the relative inhibitory potency of each of the compounds of column 1.

The next assay concerns B16 melanoma. Nature of the assay: B16 melanoma, increase in survival. The class given is in vivo, mice. From the text: (§2) The same two compounds were effective in inhibiting the growth of the following transplanted tumors--B16 melanoma, M-1 human breast xenograft, LX-1 human lung xenograft, CD8F mammary tumor and colon 38 tumor--as follows: […]
The next assay has as its system L-5563 lymphoma. Nature of the assay: Activity vs. L-5563 lymphoma (Table 6). As to conditions: 100 mg/kg; once or twice daily for 9-10 days.
The subject of the next assay is P388 Leukemia. Kind of assay: Activity vs. P388 Leukemia (Table 8). In kind it is in vivo, mice. As to conditions: once or twice daily for 9-10 days.
The next assay concerns CA-755 adenocarcinoma. Kind of assay: Activity vs. CA-755 adenocarcinoma (Table 7). The class given is in vivo, mice. As to conditions: once or twice daily for 9-10 days.
Another assay concerns the target T1, ribonucleotide reductase (Rattus norvegicus, UniProt Q4KLN6).
T1 construct: partially purified from Novikoff hepatoma; from tissue; host or cells: Novikoff hepatoma (rat tumour), partially purified enzyme
T1 sequence (Q4KLN6 1-390): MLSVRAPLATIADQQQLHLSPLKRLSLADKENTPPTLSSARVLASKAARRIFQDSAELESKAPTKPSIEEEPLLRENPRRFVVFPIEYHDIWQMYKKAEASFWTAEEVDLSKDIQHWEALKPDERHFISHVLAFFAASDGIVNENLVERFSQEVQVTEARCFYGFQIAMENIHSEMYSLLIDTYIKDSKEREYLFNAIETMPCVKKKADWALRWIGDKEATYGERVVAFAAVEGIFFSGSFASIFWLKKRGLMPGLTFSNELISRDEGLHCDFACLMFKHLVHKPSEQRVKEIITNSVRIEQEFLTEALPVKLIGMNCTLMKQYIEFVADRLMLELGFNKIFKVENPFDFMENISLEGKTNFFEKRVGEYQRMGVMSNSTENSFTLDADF
Nature of the assay: Inhibition of ribonucleotide reductase (conversion of CDP to dCDP), enzyme partially purified from Novikoff hepatoma. In kind it is biochemical.
Description: as §1
In the above determination of ID50 's in Table 3, ribonucleotide reductase is partially purified from Novikoff hepatoma by a procedure similar to that set forth by Elford et al. J. Biol. Chem. 245, 5228 (1970). The activity of the enzyme was measured by a slightly modified assay procedure originally developed by Reichard et al. id, 236, 1150 […]. This procedure measures the conversion of CDP to dCDP. The assay mixture (0.34 ml.) contains 3 μCi of [^3 H] CDP (specific activity […]), 3.3 μmole ATP, 5.9 μmoles magnesium chloride, 8.8 μmoles Hepes buffer at pH=7.5, 15 μmoles dithiothreitol and enzyme protein between 0.4 and 1.3 mg. Incubation was provided for forty minutes at 30° C. Ion exchange chromatography employing Dowex 50 (H^+) resin is used to separate the product from the substrate. The inhibitors were dissolved in water and a mixture of water and up to 1 % ethanol or 2% dimethylsulfoxide, neither one of which inhibited the enzyme at these concentrations. Each inhibitor was tested at a minimum of three concentrations and the active compounds reassayed at least one additional time. ID50 's in μmoles were estimated from graphs summarizing results for each compound.

Another assay concerns P-388 leukemia. Nature of the assay: Prolongation of life of mice inoculated with P-388 leukemia, dosing every fifth day. The class given is in vivo. As to conditions: 50-400 mg/kg every fifth day.
Assay [2] relates to L-1210 Leukemia. In kind it is in vivo, mice. The procedure:
In a series of studies against L-1210 leukemia, in addition to those studies set forth in Table 2 and 4, 3,4-dihydroxybenzohydroxamic acid gave the following increases in survival times at the dose levels specified. Drug was administered daily for nine days.
Similar data for 3,4,5-trihydroxybenzohydroxamic acid are as follows: […]

Assay [3] deals with M-1 human breast xenograft. Kind of assay: Inhibition of growth of M-1 human breast xenograft. The class given is in vivo, mice.
Description: as §2
(In general: A xenograft is tissue or cells of one species grown in another, often human tumour cells in immunodeficient mice.)

The subject of a further assay is colon 38 tumor. Nature of the assay: Inhibition of growth of colon tumor C8 (colon 38). The class given is in vivo, mice.
Description: as §2

A further assay deals with CD8F mammary tumor. Nature of the assay: Inhibition of growth of CD8F mammary tumor. The class given is in vivo.
Description: as §2

For assay [4], the system named is L-1210 Leukemia. The class given is in vivo, mice. As to conditions: once or twice daily for 9-10 days.
Description: (§3) All compounds were administered once or twice daily for 9-10 days starting 24 hours after inoculation with the tumor.
Another assay concerns CX-1 colon xenograft. Kind of assay: Activity against CX-1 colon xenograft. In kind it is in vivo. The procedure:
In addition, the compound 3,4-dihydroxybenzenehydroxamic acid was active against CX-1 colon xenograft using the following protocol:
0% tumor inhibition at 800 mg/kg dose level every fourth day,
3,4,5-trihydroxybenzohydroxamic acid gave the following results against the same tumor using the same protocol.

Another assay deals with Lewis Lung. Kind of assay: Activity vs. Lewis Lung (Table 5). The class given is in vivo, mice. As to conditions: 100 mg/kg; once or twice daily for 9-10 days.
In assay [5] the test system is L1210 leukemia. As to conditions: National Cancer Institute; cited from earlier work.
The conditions of assay [6]: Biochemical Pharmacology 1971; cited from earlier work.

“And” between values parts separate entries of the source, which are not always exact repeats. Equal values may be shown once. Read-outs that look alike come from different tables or passages of the source.

The term ILS denotes the gain in survival time of treated over control animals, in per cent. Broadly, the % inhibition is the share of the control response that was lost under treatment. As a reminder, the inhibition is the share of the control response that was lost under treatment. A lower inhibition goes with little suppression.

Description for CA-755 adenocarcinoma: as §3
Description for L-5563 lymphoma: as §3
Description for Lewis Lung: as §3
Description for P388 Leukemia: as §3

In the case of `O=C(NO)c1cc(O)c(O)c(O)c1` [3,4,5-trihydroxybenzohydroxamic acid], the ILS at 400 mg/kg in the assay with L1210 leukemia [1] was 53 ± 19%. In addition, the increase in survival with B16 melanoma (100 mg/kg) turned out to be 14%; with B16 melanoma (200 mg/kg) it was 18%. In addition, the “% inhibition” value worked out at 41% with L-5563 lymphoma, 28% in the assay on CA-755 adenocarcinoma (100 mg/kg), 11% in the assay on CA-755 adenocarcinoma (150 mg/kg) and 29% in the assay on CA-755 adenocarcinoma (175 mg/kg). Further, the “% Prolongation” value with P388 Leukemia (200 mg/kg) turned out to be 62%; in the assay on P388 Leukemia (225 mg/kg), 79%. Also, on ribonucleotide reductase (CDP to dCDP, 40 min at 30° C, pH 7.5, enzyme from Novikoff hepatoma, read-out: ID50 (inhibitory dose which inhibits ribonucleotide reductase by 50%)), the IC50 was 10 µM. Moreover, the “Inhibitory Potency for ribonucleotide reductase” value at ribonucleotide reductase (relative to hydroxyurea, given an arbitrary value of 1.0) was 50. Also, the prolongation of life with P-388 leukemia was 23-53%. Besides, the “% increase in survival” value in the assay on L-1210 Leukemia [2] (50 mg/kg daily for nine days) was 27% and 29%; in the assay on L-1210 Leukemia [2] (200 mg/kg daily for nine days), 54% and 56%; in the assay on L-1210 Leukemia [2] (400 mg/kg daily for nine days) it was 0% and 4%. The “% increase in survival time” value is 16% with L-1210 Leukemia [2] (dose 800, similar data (daily for nine days)); 60% in the assay on L-1210 Leukemia [4] (75 mg/kg); 58% and 55% in the assay on L-1210 Leukemia [4] (100 mg/kg, listed as gallohydroxamic acid); 54% in the assay on L-1210 Leukemia [4] (120 mg/kg). The inhibition is 69% in [3] (200 mg/kg); 21% in assay [3] (400 mg/kg); 56% in [3] (800 mg/kg); 41% in [3] (1600 mg/kg); 20% with colon 38 tumor (50 mg/kg); 30% in the assay with colon 38 tumor (100 mg/kg). For the same molecule, the inhibition is on record as 32% with colon 38 tumor (200 mg/kg); 17% in the assay on colon 38 tumor (400 mg/kg); 60% in the assay on colon 38 tumor (800 mg/kg); 0% in the assay on CD8F mammary tumor (300 mg/kg); 22% in the assay on CD8F mammary tumor (600 mg/kg). The values for the tumor inhibition in the assay on CX-1 colon xenograft (200 mg/kg every fourth day), in the assay on CX-1 colon xenograft (400 mg/kg every fourth day) and in the assay on CX-1 colon xenograft (800 mg/kg every fourth day) were 17%, 40% and 44%, respectively. In the assay with Lewis Lung, the “% tumor inhibition” value was found to be 40%.
In the case of `O=C(NO)c1ccc(O)cc1` [4-hydroxybenzoylhydroxamic acid], in the assay on L1210 leukemia [5], the “antitumor activity in vivo against L1210 leukemia (in words)” value is “significant antitumor activity in vivo”. Moreover, the “antimitogenic activity (in words)” value in [6] is “most active compounds tested”.

The values are drawn from patent US4448730A, “Hydroxybenzohydroxamic acids, benzamides and esters and related compounds as ribonucleotide reductase inhibitors” (priority 1982, dated 1984).
